Common to all, as to assay type: biochemical
In test [1] the target is T1, StvP2 (Streptomyces spectabilis, UniProt A0A286SBY7).
T1 construct: N-terminal 6xHis tag, eight amino acids between tag and StvP2 removed, expressed in E. coli C43(DE3); heme-containing (Cys349 ligand); one molecule per asymmetric unit when substrate-free
Briefly: HPLC-DAD product formation, modified Hill equation fit. To be noted: spinach Fdx/FdR, 4 mM NADPH, 50 mM Tris-HCl pH 7.5, 28 °C, 4 min; ascending arm of substrate-inhibition curve; read-out: Ks.

Test [2] addresses T1, StvP2. The description is as above. To be noted: spinach Fdx/FdR, 4 mM NADPH, 50 mM Tris-HCl pH 7.5, 28 °C, 4 min; substrate inhibition, descending arm.
A further test deals with T2, StvM1 (Streptomyces spectabilis, UniProt A0A286SC47).
T2 construct: N-terminal 6xHis tag, pET28a(+) NdeI/EcoRI, expressed in E. coli BL21(DE3)
T2 sequence (A0A286SC47 1-202): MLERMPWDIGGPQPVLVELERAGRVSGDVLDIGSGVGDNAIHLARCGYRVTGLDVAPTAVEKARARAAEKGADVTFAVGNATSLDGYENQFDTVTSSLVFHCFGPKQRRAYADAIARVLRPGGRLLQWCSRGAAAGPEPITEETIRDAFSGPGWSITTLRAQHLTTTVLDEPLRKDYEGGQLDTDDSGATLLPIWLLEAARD
Briefly: LC-ESI-HRMS conversion of […] to […]. To be noted: methyl donor; 100 μM damavaricin C, 50 mM Tris-HCl pH 7.5, 28 °C, 3 h.

The values below come from PMC7481197, “Uncovering the cytochrome P450-catalyzed methylenedioxy bridge formation in streptovaricins biosynthesis” (Nature Communications, 2020).

T1 sequence (A0A286SBY7 entry or part of it): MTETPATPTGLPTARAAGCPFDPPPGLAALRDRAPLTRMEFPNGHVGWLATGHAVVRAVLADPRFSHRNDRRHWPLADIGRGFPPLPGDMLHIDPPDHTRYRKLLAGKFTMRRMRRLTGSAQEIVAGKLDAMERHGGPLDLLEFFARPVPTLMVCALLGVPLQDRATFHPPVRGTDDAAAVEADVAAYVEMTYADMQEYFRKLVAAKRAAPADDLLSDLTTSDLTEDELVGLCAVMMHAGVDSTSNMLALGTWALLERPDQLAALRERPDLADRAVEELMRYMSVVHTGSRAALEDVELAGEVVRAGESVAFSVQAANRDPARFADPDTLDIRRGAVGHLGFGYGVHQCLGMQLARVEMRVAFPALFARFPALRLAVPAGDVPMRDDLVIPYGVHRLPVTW

As for 6-methoxy-streptovaricin D [compound 6], at StvP2 [1], the Km was determined as 67.4 ± 28.4 µM. This compound also returned a Ki at StvP2 [2] of 288.50 ± 122.60 µM.

On to 6-methoxy-streptovaricin H [compound 4], for which the Km at StvP2 [1] is 95.6 ± 30.8 µM. On StvP2 [2], this compound gave a Ki of 399.35 ± 122.10 µM.

As for `C[S+](CC[C@H](N)C(=O)O)C[C@H]1O[C@@H](n2cnc3c(N)ncnc32)[C@H](O)[C@@H]1O` (stereo partly shown) [SAM], on StvM1, the “LC-ESI-HRMS conversion of 7 to 8” value is reported as “using SAM as methyl donor”.

On to `COC(=O)[C@@H]1[C@H](O)[C@H](C)[C@H](O)[C@H](C)/C=C\C=C(/C)C(=O)Nc2c(C)c(OC(C)=O)c3c(c(OC)c(C)c(O)c3c2O)C(=O)/C(C)=C/[C@@](C)(O)[C@H](O)[C@@H](C)[C@H]1O` [compound 2, 6-methoxy-streptovaricin C], for which the Km on StvP2 [1] stood at 110 ± 46.2 µM. In addition, on StvP2 [2], the Ki is 367.30 ± 128.57 µM.
